{"source": "patent US7767232B2", "about": "“Control of nitric oxide bioactivity by perfluorocarbons” (New York University, priority 2002, dated 2010)", "key": {"nitrosothiols formation": {"system": "nitrosothiols formation", "test": "Effect of α-dihydrolipoic acid on nitrosothiol formation and vasorelaxation in the presence of perfluorocarbons", "conditions": "FIG. 8, in vitro and in vivo", "text": "If delivered at small concentrations, i.e., less than 1% v/v, and in conjunction with low molecular weight nucleophiles, such as thiols or mixtures of thiols, perfluorocarbons act as a powerful vasodilator rather than as a vasoconstrictor. NO^+ originated from N2O3 in the perfluorocarbon micelles can be transferred to various low molecular weight nucleophiles, exemplified as RSH, by two possible pathways, as shown in FIG. 7. Direct attack on RSH is possible at the surface of perfluorocarbon micelles or inside the micelles, if the RSH were hydrophobic enough to enter it, as shown in pathway I of FIG. 7. Additionally, NO can reach various RSH via a transnitrosation reaction by using a lipophilic low molecular weight “shuttle”, as shown in FIG. 7. One example of such an NO shuttle is α-lipoic acid (α-LA), which is normally present in the circulation at low (micromolar) concentrations (Keipert, 2001). α-lipoic acid has a highly hydrophobic tail (FIG. 7A), which can readily penetrate the perfluorocarbon micelle where it is nitrosated. Since both SH groups of α-dihydro-lipoic acid are located next to each other, upon nitrosation they would almost immediately form an S-S adduct and release NO^+. […]"}, "rats [1]": {"system": "rats", "test": "Plasma low molecular weight S-nitrosothiols and mean arterial pressure after Perftoran and thiols in rats", "assay_type": "in vivo, rat", "conditions": "cysteine 1 mg/kg intravenously, without perfluorocarbon", "description": "Plasma low molecular weight-S-nitrosothiols were determined using CuCl2 to displace NO from thiol residues followed by electrochemical detection of released NO (Rafikova et al., 2002). The concentration of CuCl2, 40 μM, was selected to decompose predominantly low molecular weight S-nitrosothiols."}, "rats [2]": {"system": "rats", "test": "Relation of perfluorocarbon hemodynamic effects to NO: L-NAME and potassium nitrite treated rats, mean arterial pressure", "assay_type": "in vivo, rat"}}}
{"smiles": "O=C(O)CCCC[C@@H](S)CCS", "note": "[α-dihydrolipoic acid]", "values": [{"measurement": "effect on formation of nitrosothiols and vasorelaxation", "setting": "nitrosothiols formation", "result": "simulating effect"}]}
{"smiles": "N[C@@H](CS)C(=O)O", "note": "[cysteine, L-cysteine]", "values": [{"measurement": "effect on blood pressure", "setting": "rats [1]", "result": "virtually no effect"}, {"measurement": "effect on plasma low molecular weight S-nitrosothiols", "setting": "rats [1]", "result": "virtually no effect"}]}
{"smiles": "O=N[O-].[K+]", "note": "[potassium nitrite]", "values": [{"measurement": "effect on mean arterial pressure after L-NAME", "setting": "rats [2]; 1 mg/kg potassium nitrite about 90 minutes after L-NAME", "result": "partially restored mean arterial pressure"}, {"measurement": "mean arterial pressure above the baseline", "setting": "rats [2]; nitrite-treated (L-NAME) rats without Perftoran, same time", "result": "about 24 mmHg"}]}
